In PMC12669672, “Structural insights into selective and dual antagonism of EP2 and EP4 prostaglandin receptors” (The EMBO Journal, 2025):
“And” between values parts separate entries of the source, which are not always exact repeats. Equal values may be shown once.

What was measured:
Format in all cases: cell-based
[1] = target: T1, constitutively active EP4 V72A (Homo sapiens, UniProt P35408, V72A); test: GloSensor cAMP assay, inhibition of constitutive activity; conditions: for ΔpIC50: no PGE2, pIC50 mutant - pIC50 WT, mean
T1 construct: The full-length EP2 or EP4 was cloned into the pcDNA3.1 vector (Invitrogen), incorporating an N-terminal FLAG tag; expressed in transfected cells; host or cells: AD293

EP4 S319A = target: T2, EP4 S319A (Homo sapiens, UniProt P35408, S319A); test: GloSensor cAMP assay, antagonism of PGE2-induced cAMP; conditions: for cAMP activity (∆pIC50 from EP4 WT): Grapiprant, S319A; for ΔpIC50: PGE2 0.5 nM, pIC50 mutant - pIC50 WT, mean
T2 construct: The full-length EP2 or EP4 was cloned into the pcDNA3.1 vector (Invitrogen), incorporating an N-terminal FLAG tag; expressed in transfected cells; host or cells: AD293

EP4 V72A = target: T3, EP4 V72A (Homo sapiens, UniProt P35408, V72A); test: as above; conditions: for cAMP activity (∆pIC50 from EP4 WT): Grapiprant, V72A; for ΔpIC50: PGE2 0.5 nM, pIC50 mutant - pIC50 WT, mean
T3 construct: The full-length EP2 or EP4 was cloned into the pcDNA3.1 vector; FLAG (N); expressed in transfected cells; host or cells: AD293 cells

EP4 V320A = target: T4, EP4 V320A (Homo sapiens, UniProt P35408, V320A); test: as above; conditions: for ΔpIC50: PGE2 0.5 nM, pIC50 mutant - pIC50 WT, mean
T4 construct: The full-length EP2 or EP4 was cloned into the pcDNA3.1 vector (Invitrogen), incorporating an N-terminal FLAG tag; expressed in transfected cells; host or cells: AD293

[2] = 1 h, Grapiprant log([M]) -7, read-out: % cAMP activity (normalized to WT)
[3] = 1 h, Grapiprant log([M]) -8, read-out: % cAMP activity (normalized to WT)
[4] = 1 h, Grapiprant log([M]) -9, read-out: % cAMP activity (normalized to WT)
[5] = 1 h, Grapiprant log([M]) -10, read-out: % cAMP activity (normalized to WT)
[6] = 1 h, Grapiprant log([M]) -11, read-out: % cAMP activity (normalized to WT)
[7] = 1 h, Grapiprant log([M]) -12, read-out: % cAMP activity (normalized to WT)

T2 sequence (P35408 whole entry S319A): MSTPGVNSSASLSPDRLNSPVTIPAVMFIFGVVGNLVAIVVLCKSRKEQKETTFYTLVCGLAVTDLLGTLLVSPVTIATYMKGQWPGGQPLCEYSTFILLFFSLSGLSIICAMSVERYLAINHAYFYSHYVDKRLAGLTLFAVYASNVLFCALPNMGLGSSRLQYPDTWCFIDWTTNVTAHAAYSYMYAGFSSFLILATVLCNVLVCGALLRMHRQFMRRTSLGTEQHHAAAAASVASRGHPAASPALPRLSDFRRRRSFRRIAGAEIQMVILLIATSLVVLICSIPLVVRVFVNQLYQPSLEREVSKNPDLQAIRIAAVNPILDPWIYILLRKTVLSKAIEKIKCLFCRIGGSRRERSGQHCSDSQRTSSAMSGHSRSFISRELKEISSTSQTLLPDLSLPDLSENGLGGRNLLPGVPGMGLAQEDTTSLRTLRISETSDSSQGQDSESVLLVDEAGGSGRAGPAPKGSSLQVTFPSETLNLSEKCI
T4 sequence (P35408 whole entry V320A): as the sequence (P35408 whole entry S319A) above, with A319S, V320A counted along it
T3 sequence (P35408 whole entry V72A): as the sequence (P35408 whole entry S319A) above, with V72A, A319S counted along it
T1 sequence (P35408 whole entry V72A): as the sequence (P35408 whole entry S319A) above, with V72A, A319S counted along it

Structure (SMILES): CCc1nc2c(C)nc(C)cc2n1-c1ccc(CCNC(=O)NS(=O)(=O)c2ccc(C)cc2)cc1 [Grapiprant]
- IC50 [1]: 0.0186 µM
- remaining activity at 0.1 µM ([1]; 1 h, Grapiprant log([M]) -7.00, EP4-V72A, read-out: % cAMP activity (normalized to WT)): 8.15%
- remaining activity at 0.01 µM ([1]; 1 h, Grapiprant log([M]) -8.00, EP4-V72A, read-out: % cAMP activity (normalized to WT)): 28%
- remaining activity at 0.001 µM ([1]; 1 h, Grapiprant log([M]) -9.00, EP4-V72A, read-out: % cAMP activity (normalized to WT)): 48.8%
- remaining activity at 0.0001 µM ([1]; 1 h, Grapiprant log([M]) -10.00, EP4-V72A, read-out: % cAMP activity (normalized to WT)): 35.6%
- remaining activity at 10 pM ([1]; 1 h, Grapiprant log([M]) -11.00, EP4-V72A, read-out: % cAMP activity (normalized to WT)): 41%
- remaining activity at 1 pM ([1]; 1 h, Grapiprant log([M]) -12.00, EP4-V72A, read-out: % cAMP activity (normalized to WT)): 39%
- Grapiprant cAMP activity (∆pIC50 from EP4 WT), Mean ([1]; V72A, Mean): -0.652
- Grapiprant cAMP activity (∆pIC50 from EP4 WT) ([1]; V72A, single experiments 1st-3rd): -0.771 and -0.507 and -0.679
- ΔpIC50 [1]: -0.65 ± 0.08
- ΔpIC50 ([1]; listed as grapiprant): reduced the potency
- IC50 (EP4 S319A): 0.186 µM
- remaining activity at 10 µM (EP4 S319A; 1 h, Grapiprant log([M]) -5, read-out: % cAMP activity (normalized to WT)): 3.59%
- remaining activity at 1 µM (EP4 S319A; 1 h, Grapiprant log([M]) -6, read-out: % cAMP activity (normalized to WT)): 3.85%
- remaining activity at 0.1 µM (EP4 S319A; [2]): 22.9%
- remaining activity at 0.01 µM (EP4 S319A; [3]): 31.9%
- remaining activity at 0.001 µM (EP4 S319A; [4]): 32.1%
- remaining activity at 0.0001 µM (EP4 S319A; [5]): 27.9%
- remaining activity at 10 pM (EP4 S319A; [6]): 33%
- remaining activity at 1 pM (EP4 S319A; [7]): 28.4%
- cAMP activity (∆pIC50 from EP4 WT) (EP4 S319A; Mean): -0.645
- cAMP activity (∆pIC50 from EP4 WT) (EP4 S319A; single experiments 1st-3rd): -0.523 and -0.642 and -0.769
- ΔpIC50 (EP4 S319A): -0.64 ± 0.07
- ΔpIC50 (EP4 S319A; listed as grapiprant): reduced the potency
- IC50 (EP4 V72A): 0.11 µM
- remaining activity at 0.1 µM (EP4 V72A; [2]): 25.9%
- remaining activity at 0.01 µM (EP4 V72A; [3]): 35.8%
- remaining activity at 0.001 µM (EP4 V72A; [4]): 45%
- remaining activity at 0.0001 µM (EP4 V72A; [5]): 46.7%
- remaining activity at 10 pM (EP4 V72A; [6]): 54.1%
- remaining activity at 1 pM (EP4 V72A; [7]): 41%
- cAMP activity (∆pIC50 from EP4 WT) (EP4 V72A; Mean): -0.294
- cAMP activity (∆pIC50 from EP4 WT) (EP4 V72A; single experiments 1st-3rd): -0.217 and -0.413 and -0.252
- ΔpIC50 (EP4 V72A): -0.29 ± 0.06
- ΔpIC50 (EP4 V72A; listed as grapiprant): reduced the potency
- IC50 (EP4 V320A): 0.339 µM
- remaining activity at 0.0001 µM (EP4 V320A; [5]): 39.6%
- cAMP activity (∆pIC50 from EP4 WT) (EP4 V320A; Grapiprant, V320A, Mean): -0.775
- ΔpIC50 (EP4 V320A): -0.78 ± 0.12
- ΔpIC50 (EP4 V320A; listed as grapiprant): reduced the potency
